Measured values published in patent publication US6645983B1, “Pharmaceutical compositions comprising 4-quinolones for treating cancers” (Laboratoire L. Lafon, priority 1999, dated 2003).

What was measured:
A-427 = assay: MTT test, cytotoxic activity on non-clonogenic cell lines; format: cell-based; settings: Homo sapiens, 10^−5 M, 72 hours incubation, MTT, mean value, read-out: mean optical density, expressed as percentage relative to the mean optical density under the control condition (100%)
How it was run: (§1)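 Human cancer lines seeded at 20 000–50 000 cells/ml, allowed 24 h to attach, then exposed to compounds at 10^−5 to 10^−10 M versus solvent control.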

A549 = assay: as above; format: cell-based; settings: Homo sapiens, 10^−5 M, 72 hours incubation, MTT, mean value, read-out: mean optical density, expressed as percentage relative to the mean optical density under the control condition (100%)
How it was run: as §1

HCT-15 = assay: as above; format: cell-based; settings: Homo sapiens, HCT-16, 10^−5 M, 72 hours incubation, MTT, mean value, read-out: mean optical density, expressed as percentage relative to the mean optical density under the control condition (100%)
How it was run: as §1

LoVo = assay: as above; format: cell-based; settings: Homo sapiens, 10^−5 M, 72 hours incubation, MTT, mean value, read-out: mean optical density, expressed as percentage relative to the mean optical density under the control condition (100%)
How it was run: as §1

MCF7 = assay: as above; format: cell-based; settings: Homo sapiens, 10^−5 M, 72 hours incubation, MTT, mean value, read-out: mean optical density, expressed as percentage relative to the mean optical density under the control condition (100%)
How it was run: as §1

PC-3 = assay: as above; format: cell-based; settings: Homo sapiens, 10^−5 M, 72 hours incubation, MTT, mean value, read-out: mean optical density, expressed as percentage relative to the mean optical density under the control condition (100%)
How it was run: as §1

T-47D = assay: as above; format: cell-based; settings: Homo sapiens, T47D; T-47D; 10^−5 M; 72 hours incubation; MTT; mean value; read-out: mean optical density, expressed as percentage relative to the mean optical density under the control condition (100%)
How it was run: as §1

U-373MG = assay: as above; format: cell-based; settings: Homo sapiens, U373 MG; U-373MG; 10^−5 M; 72 hours incubation; MTT; mean value; read-out: mean optical density, expressed as percentage relative to the mean optical density under the control condition (100%)
How it was run: as §1

U-87MG = assay: as above; format: cell-based; settings: Homo sapiens; U-87MG; 10^−5 M; 72 hours incubation; MTT; mean value; read-out: mean optical density, expressed as percentage relative to the mean optical density under the control condition (100%)
How it was run: as §1

SW1088 = assay: as above; format: cell-based; settings: Homo sapiens, 10^−5 M, 72 hours incubation, MTT, mean value, read-out: mean optical density, expressed as percentage relative to the mean optical density under the control condition (100%)
How it was run: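 Human astrocytoma SW1088 cells seeded, grown 24 h at 37° C, 5% CO2, then exposed to compounds at 10^−5 to 10^−10 M versus solvent control. Viability by MTT reduction: 3 h MTT incubation, formazan dissolved in DMSO and read by spectrophotometry.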

J82 = assay: as above; format: cell-based; settings: Homo sapiens, 10^−5 M, 72 hours incubation, MTT, mean value, read-out: mean optical density, expressed as percentage relative to the mean optical density under the control condition (100%)
How it was run: (§2)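 Human bladder cancer lines were seeded at 20 000–50 000 cells/ml and, after 24 h, exposed to compounds at 10^−5 to 10^−10 M against a solvent control. Formazan was dissolved in DMSO and viability was read by spectrophotometric optical density.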

T24 = assay: as above; format: cell-based; settings: Homo sapiens, T-24; T24; 10^−5 M; 72 hours incubation; MTT; mean value; read-out: mean optical density, expressed as percentage relative to the mean optical density under the control condition (100%)
How it was run: as §2

[1] = Determination of the maximum tolerated dose (MTD); settings: B6D2F1/Jico, mouse, in vivo, ip; single intraperitoneal administration, doses 2.5 to 160 mg/kg, survival over 14 days
How it was run: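 Mice were 4- to 6-week-old B6D2F1/Jico. They received a single intraperitoneal dose of 2.5 to 160 mg/kg, and survival and body weight were followed for 14 days. MTD is given in mg/kg and is capped at 160 mg/kg by default.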

## COc1ccc(-c2cn(C)c3cc(OC)cc(NCCN(C)C)c3c2=O)cc1 [CRL8462, 5-{[(Dimethylamino)ethyl]amino}-7-methoxy-3-(4-methoxyphenyl)-1-methyl-1,4-dihydro-4-quinolinone]
A-427
  viability at 10 µM: 77.1%
A549
  viability at 10 µM: 86.8%
HCT-15
  viability at 10 µM: 77.4%
LoVo
  viability at 10 µM: 84.6%
MCF7
  viability at 10 µM: 89.4%
PC-3
  viability at 10 µM: 84%
T-47D
  viability at 10 µM: 92.2%
U-373MG
  viability at 10 µM: 111%
U-87MG
  viability at 10 µM: 195%
SW1088
  viability at 10 µM: 105%
J82
  viability at 10 µM: 105%
T24
  viability at 10 µM: 111%
[1]
  MTD at 14 day: > 160 mg/kg

## COc1ccc(-c2cn(C)c3cc(OC)ccc3c2=O)cc1 [CRL8464, 7-Methoxy-3-(4-methoxyphenyl)-1-methyl-1,4-dihydro-4-quinolinone]
A-427
  viability at 10 µM: 102%
A549
  viability at 10 µM: 91.3%
HCT-15
  viability at 10 µM: 111%
LoVo
  viability at 10 µM: 101%
MCF7
  viability at 10 µM: 99.8%
PC-3
  viability at 10 µM: 97.1%
T-47D
  viability at 10 µM: 110%
U-373MG
  viability at 10 µM: 118%
U-87MG
  viability at 10 µM: 105%
SW1088
  viability at 10 µM: 95.6%
J82
  viability at 10 µM: 95.4%
T24
  viability at 10 µM: 105%
[1]
  MTD at 14 day: > 160 mg/kg

## CCOC(=O)Cn1cc(-c2ccc(OC)cc2)c(=O)c2ccc(OC)cc21 [CRL8465, Ethyl 2-[7-methoxy-3-(4-methoxyphenyl)-4-oxo-1,4-dihydro-1-quinolinyl]acetate]
A-427
  viability at 10 µM: 85.4%
A549
  viability at 10 µM: 80.1%
HCT-15
  viability at 10 µM: 165%
LoVo
  viability at 10 µM: 110%
MCF7
  viability at 10 µM: 94.3%
PC-3
  viability at 10 µM: 96.9%
T-47D
  viability at 10 µM: 94.4%
U-373MG
  viability at 10 µM: 100%
U-87MG
  viability at 10 µM: 105%
SW1088
  viability at 10 µM: 89.8%
J82
  viability at 10 µM: 93.6%
T24
  viability at 10 µM: 91.2%
[1]
  MTD at 14 day: > 160 mg/kg

## CCN(CC)C(=O)Cn1cc(-c2ccc(OC)cc2)c(=O)c2ccc(OC)cc21 [CRL8466, N,N-Diethyl-2-[7-methoxy-3-(4-methoxyphenyl)-4-oxo-1,4-dihydro-1-quinolinyl]acetamide]
A-427
  viability at 10 µM: 97.5%
A549
  viability at 10 µM: 101%
HCT-15
  viability at 10 µM: 96.1%
LoVo
  viability at 10 µM: 98.9%
MCF7
  viability at 10 µM: 108%
PC-3
  viability at 10 µM: 102%
T-47D
  viability at 10 µM: 95.2%
U-373MG
  viability at 10 µM: 59.4%
U-87MG
  viability at 10 µM: 97.2%
SW1088
  viability at 10 µM: 102%
J82
  viability at 10 µM: 93.1%
T24
  viability at 10 µM: 69.5%
[1]
  MTD at 14 day: > 160 mg/kg

## COc1ccc(-c2cn(CCC#N)c3cc(OC)ccc3c2=O)cc1 [CRL8467, 3-[7-Methoxy-3-(4-methoxyphenyl)-4-oxo-1,4-dihydro-1-quinolinyl]propanenitrile]
A-427
  viability at 10 µM: 90%
A549
  viability at 10 µM: 90.8%
HCT-15
  viability at 10 µM: 108%
LoVo
  viability at 10 µM: 95.8%
MCF7
  viability at 10 µM: 98.3%
PC-3
  viability at 10 µM: 98.4%
T-47D
  viability at 10 µM: 100%
U-373MG
  viability at 10 µM: 108%
U-87MG
  viability at 10 µM: 95.3%
SW1088
  viability at 10 µM: 101%
J82
  viability at 10 µM: 96.3%
T24
  viability at 10 µM: 94.6%
[1]
  MTD at 14 day: > 160 mg/kg

## CCOC(=O)CCn1cc(-c2ccc(OC)cc2)c(=O)c2ccc(OC)cc21 [CRL8468, Ethyl 3-[7-methoxy-3-(4-methoxyphenyl)-4-oxo-1,4-dihydro-1-quinolinyl]propanoate]
A-427
  viability at 10 µM: 69.7%
A549
  viability at 10 µM: 93.6%
HCT-15
  viability at 10 µM: 111%
LoVo
  viability at 10 µM: 97.2%
MCF7
  viability at 10 µM: 79.1%
PC-3
  viability at 10 µM: 95%
T-47D
  viability at 10 µM: 92.2%
U-373MG
  viability at 10 µM: 107%
U-87MG
  viability at 10 µM: 92.7%
SW1088
  viability at 10 µM: 104%
J82
  viability at 10 µM: 91.9%
T24
  viability at 10 µM: 98.5%
[1]
  MTD at 14 day: > 160 mg/kg

## COc1ccc(-c2cn(CCCC#N)c3cc(OC)ccc3c2=O)cc1 [CRL8470, 4-[7-Methoxy-3-(4-methoxyphenyl)-4-oxo-1,4-dihydro-1-quinolinyl]butanenitrile]
A-427
  viability at 10 µM: 103%
A549
  viability at 10 µM: 80.2%
HCT-15
  viability at 10 µM: 95.5%
LoVo
  viability at 10 µM: 86.6%
MCF7
  viability at 10 µM: 92.8%
PC-3
  viability at 10 µM: 94%
T-47D
  viability at 10 µM: 88.8%
U-373MG
  viability at 10 µM: 104%
U-87MG
  viability at 10 µM: 97.2%
SW1088
  viability at 10 µM: 92.5%
J82
  viability at 10 µM: 85.6%
T24
  viability at 10 µM: 101%
[1]
  MTD at 14 day: > 160 mg/kg

## COc1ccc(-c2cn(CCc3nnn[nH]3)c3cc(OC)ccc3c2=O)cc1 [CRL8474, 7-Methoxy-3-(4-methoxyphenyl)-1-[2-(2H-1,2,3,4-tetrazol-5-yl)ethyl]-1,4-dihydro-4-quinolinone]
other
  melting point: 245 to 246 °C

## COc1ccc2[nH]cc(-c3ccccc3)c(=O)c2c1 [CRL8488, 6-Methoxy-3-phenyl-1,4-dihydro-4-quinolinone]
other
  melting point: 355 to 356 °C

## COc1cc(OC)c2c(=O)c(-c3ccccc3)cn(C)c2c1 [CRL8489, 5,7-Dimethoxy-3-phenyl-1-methyl-1,4-dihydro-4-quinolinone]
other
  melting point: 179 to 180 °C

## COc1ccc(-c2c[nH]c3ccc(OC)cc3c2=O)cc1 [CRL8490, 6-Methoxy-3-(4-methoxyphenyl)-1,4-dihydro-4-quinolinone]
other
  melting point: 335 to 336 °C

## COc1ccc(-c2c[nH]c3cccc(OC)c3c2=O)cc1 [CRL8491, 5-Methoxy-3-(4-methoxyphenyl)-1,4-dihydro-4-quinolinone]
other
  melting point: 215 to 216 °C

## COc1ccc(-c2c[nH]c3cc(OC)cc(O)c3c2=O)cc1 [CRL8492, 5-Hydroxy-7-methoxy-3-(4-methoxyphenyl)-1,4-dihydro-4-quinolinone]
other
  melting point: 236 to 237 °C

## COc1ccc(-c2cn(C)c3cc(OC)cc(OS(=O)(=O)C(F)(F)F)c3c2=O)cc1 [CRL8493, 7-Methoxy-3-(4-methoxyphenyl)-1-methyl-5-trifluoromethanesulfonate-1,4-dihydro-4-quinolinone]
other
  melting point: 184 to 185 °C

## C=Cc1cc(OC)cc2c1c(=O)c(-c1ccc(OC)cc1)cn2C [CRL8494, 7-Methoxy-3-(4-methoxyphenyl)-1-methyl-5-vinyl-1,4-dihydro-4-quinolinone]
other
  melting point: 130 to 131 °C

## C=CCOc1c(-c2ccc(OC)cc2)cnc2cc(OC)cc(OC)c12 [CRL8496, 4-(Allyloxy)-5,7-dimethoxy-3-(4-methoxyphenyl)-quinoline]
other
  melting point: 169 to 170 °C

## COc1ccc(-c2cnc3cc(OC)cc(OC)c3c2OCCC2OCCO2)cc1 [CRL8500, 4-[2-(1,3-Dioxolan-2-yl)ethoxy]-5,7-dimethoxy-3-(4-methoxyphenyl)quinoline]
other
  melting point: 141 to 142 °C

## COc1ccc(-c2cnc3c(OC)ccc(OC)c3c2OCCCC#N)cc1 [CRL8501, {[5,8-Dimethoxy-3-(4-methoxyphenyl)-4-quinolyl]oxy}butanenitrile]
other
  melting point: 117 to 118 °C

## CCOC(=O)COc1c(-c2ccc(OC)cc2)cnc2cc(OC)cc(OC)c12 [CRL8502, Ethyl 2-{[5,7-dimethoxy-3-(4-methoxyphenyl)-4-quinolinyl]oxy}acetate]
other
  melting point: 238 to 239 °C

## COc1ccc(-c2cn(C)c3c(OC)ccc(OS(=O)(=O)C(F)(F)F)c3c2=O)cc1 [CRL8511, 8-Methoxy-3-(4-methoxyphenyl)-1-methyl-5-trifluoro-methanesulfonate-1,4-dihydro-4-quinolinone]
other
  melting point: 179 to 180 °C

## C=Cc1ccc(OC)c2c1c(=O)c(-c1ccc(OC)cc1)cn2C [CRL8512, 8-Methoxy-3-(4-methoxyphenyl)-1-methyl-5-vinyl-1,4-dihydro-4-quinolinone]
other
  melting point: 104 to 105 °C

## CC(=O)Oc1ccc(-c2cn(C)c3cc(OC(C)=O)cc(OC(C)=O)c3c2=O)cc1 [CRL8513, 5,7-Diacetoxy-3-[4-(acetoxy)phenyl]-1-methyl-1,4-dihydro-4-quinolmone]
other
  melting point: 219 to 220 °C

## COc1ccc(-c2cn(CCO)c3c(OC)ccc(OC)c3c2=O)cc1 [CRL8515, 1-(2-Hydroxyethyl)-5,8-dimethoxy-3-(4-methoxyphenyl)-1,4-dihydro-4-quinolinone]
other
  melting point: 126 to 127 °C

## COc1ccc(-c2cnc3c(OC)ccc(OC)c3c2OCCO)cc1 [CRL8516, 2-{[5,8-Dimethoxy-3-(4-methoxyphenyl)-4-quinolyl]oxy}-1-ethanol]
other
  melting point: 124 to 125 °C
